Literature values in US12552784B2, “1H-pyrrolo[2,3-b]pyridine derivatives as BCL-2 inhibitors for the treatment of neoplastic and autoimmune diseases” (priority 2019, dated 2026).
One block for each compound: values may come before it.

Assays:
CLL = details: average; read-out: EC50 apoptosis in CLL
RS4;11 xenografts = details: single dose of 100 mg/kg
DoHH2 = details: single agent or in combination with Bendamustine and other agents
Granta-519 = details: single agent or in combination with Bendamustine and other agents
[1] = test system: CLL who have 17p deletion; details: Human Phase I and II
[2] = in vivo
established tumors = details: animal models
Bcl-w = target: T1, Bcl-w (Homo sapiens, UniProt Q92843)
T1 sequence (Q92843 1-193): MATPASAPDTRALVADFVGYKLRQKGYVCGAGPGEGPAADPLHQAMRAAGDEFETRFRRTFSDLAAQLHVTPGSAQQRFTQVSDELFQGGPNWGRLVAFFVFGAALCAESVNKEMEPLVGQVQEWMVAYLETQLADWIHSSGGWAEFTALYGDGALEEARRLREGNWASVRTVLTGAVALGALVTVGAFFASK

SCLC H146 cell line = details: read-out: IC50 against SCLC H146 cell line
H345 xenograft model = details: 100 mg/kg/day
small-cell lung cancer = details: oral administration alone
[3] = test system: acute lymphoblastic leukemia; details: oral administration alone

- EC50 (RS4;11 cells): 8 nM
- EC50 (CLL): 3 nM
SMILES: CC1(C)CCC(CN2CCN(c3ccc(C(=O)NS(=O)(=O)c4ccc(NCC5CCOCC5)c([N+](=O)[O-])c4)c(Oc4cnc5[nH]ccc5c4)c3)CC2)=C(c2ccc(Cl)cc2)C1 [ABT-199]
- apoptosis in RS4;11 cells (RS4;11 cells; with cytochrome c release, caspase activation, accumulation of sub-G0/G1 DNA): rapid apoptosis
- maximal tumor growth inhibition (RS4;11 xenografts): 95%
- tumor growth delay (RS4;11 xenografts): 152%
- xenograft growth (DoHH2): inhibits xenograft growth
- xenograft growth (Granta-519): inhibits xenograft growth
- clinical efficacy [1]: highly efficacious

SMILES: CN(C)CC[C@H](CSc1ccccc1)Nc1ccc(S(=O)(=O)NC(=O)c2ccc(N3CCN(Cc4ccccc4-c4ccc(Cl)cc4)CC3)cc2)cc1[N+](=O)[O-] [ABT-737]
- oral bioavailability [2]: not orally bioavailable
- aqueous solubility: low aqueous solubility
- cures (established tumors): produces cures in a high percentage of the mice
- survival (established tumors): improves survival
- tumor regression (established tumors): causes regression of established tumors

- Ki (Bcl-w): ≤ 1 nM
- IC50 (SCLC H146 cell line): 110 nM
- number of circulating platelets (circulating platelets; clinical trial): rapid, concentration-dependent decrease
- oral bioavailability [2]: orally bioavailable
SMILES: CC1(C)CCC(c2ccc(Cl)cc2)=C(CN2CCN(c3ccc(C(=O)NS(=O)(=O)c4ccc(N[C@H](CCN5CCOCC5)CSc5ccccc5)c(S(=O)(=O)C(F)(F)F)c4)cc3)CC2)C1 [ABT-263]
- TGI (H345 xenograft model): 80%
- treated tumors indicating at least a 50% reduction in tumor volume (H345 xenograft model): 20%
- tumor regression (small-cell lung cancer): complete tumor regressions
- tumor regression [3]: complete tumor regressions
- dose-limiting toxicity (circulating platelets; single-agent treatment in patients): mechanism-based thrombocytopenia
